Measurements: PubChem BioAssay AID488801 (NMMLSC, 2010)
Activity calls are given as the source filed them.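 The calls were made as follows: active = EC50 at or below 33 microM; inactive = the rest.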

Target: Ammonium transporter MEP2 (Saccharomyces cerevisiae (strain ATCC 204508 / S288c)) (UniProt P41948)
Experiment: yeast MEP2-GFP fusion level changes, TOR pathway – flow cytometry, KU SAR set, S. cerevisiae, dose response (AID 488801)
Settings: flow cytometry MCF, 3 h

Ammonium transporter MEP2 (Saccharomyces cerevisiae (strain ATCC 204508 / S288c)), sequence (P41948 whole entry, looked up, the tested form may be a part): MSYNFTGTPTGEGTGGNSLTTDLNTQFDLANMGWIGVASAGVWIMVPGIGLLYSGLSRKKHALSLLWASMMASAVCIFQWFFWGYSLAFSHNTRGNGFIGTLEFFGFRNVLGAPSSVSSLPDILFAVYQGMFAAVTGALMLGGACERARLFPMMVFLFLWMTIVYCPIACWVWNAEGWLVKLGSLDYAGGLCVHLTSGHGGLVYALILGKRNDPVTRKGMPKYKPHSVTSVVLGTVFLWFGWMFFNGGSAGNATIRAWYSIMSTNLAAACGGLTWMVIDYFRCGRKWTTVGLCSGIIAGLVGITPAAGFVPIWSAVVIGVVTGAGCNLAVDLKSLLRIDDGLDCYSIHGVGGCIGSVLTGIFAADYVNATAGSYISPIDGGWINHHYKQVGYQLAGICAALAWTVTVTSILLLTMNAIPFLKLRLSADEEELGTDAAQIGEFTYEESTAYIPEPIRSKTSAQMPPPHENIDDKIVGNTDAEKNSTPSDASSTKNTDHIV

SMILES	EC50
COc1ccc([N+](=O)[O-])c(S(=O)(=O)c2ccccc2)n1	inactive
O=C(Oc1ccnc2cc(Cl)ccc12)N1CCCCCC1	3.97 µM
O=C(Nc1nc(-c2ccccn2)cs1)c1cc2ccccc2o1	inactive
Cc1ccc(/C=C2/C(=O)ON=C2c2ccccc2)o1	inactive
CNc1nc(N)c([N+](=O)[O-])c(Nc2cccc(F)c2)n1	15.8 µM
C/C(=N\NC(=O)c1cccc(Br)c1)c1ccccn1	inactive
CCN(CC)C(=O)Oc1ccnc2cc(Cl)ccc12	inactive
CNc1nc(N)c([N+](=O)[O-])c(Nc2cccc(Cl)c2)n1	2.72 µM
Nc1cc(Nc2cccc(F)c2)nc(NCc2ccccc2)n1	inactive
O=C(Oc1c(Cl)cc(Cl)c2cccnc12)c1cccc([N+](=O)[O-])c1	inactive
O=C(Oc1c(Cl)cc(Cl)c2cccnc12)c1ccco1	inactive
O=C(OCC(=O)N1CCN(C(=O)c2ccco2)CC1)c1cc(-c2cccc(Br)c2)nc2ccccc12	inactive
Cc1cc(C(=O)Nc2nc(-c3ccccn3)cs2)ccc1[N+](=O)[O-]	inactive
CN1CCN(C(c2ccc(C(F)(F)F)cc2)c2ccc3cccnc3c2O)CC1 (stereo unspecified)	inactive
Cc1ccc(C(c2cc(Cl)c3cccnc3c2O)N2CCN(C)CC2)cc1 (stereo unspecified)	inactive
O=C(Nc1nc(-c2ccccn2)cs1)C1COc2ccccc2O1 (stereo unspecified)	inactive
CSC1=NS(=O)(=O)c2c(C)nn(C)c2S1	inactive
C/C(=N\NC(=O)c1ccc(C(C)(C)C)cc1)c1ccccn1	inactive
Cc1ccc(S(=O)(=O)c2ncccc2[N+](=O)[O-])cc1	inactive
CNc1nc(N)c([N+](=O)[O-])c(NCC2CCCO2)n1 (stereo unspecified)	inactive
Nc1cc(Oc2cccc(Cl)c2)nc(NCc2ccccc2)n1	inactive
